In patent US12357695B2, “Peptides and nanoparticles for intracellular delivery of molecules” (AADIGEN, LLC, priority 2019, dated 2025):
Square brackets hold non-standard residues; d marks the D form. Ends that are not written are not given here. Stearyl = stearyl group covalently linked to the N-terminus; Aun = NCCCCCCCCCCC(=O)O; βAla = NCCC(=O)O

How the values were obtained:
mice = test: In vivo delivery of pGL4 plasmid DNA, intravenous administration, bioluminescence imaging; details: 5 μg pGL4 plasmid; for increase of luciferase expression / efficiency relative to ADGN-100: all / different tissues
Protocol: FIGS. 6A-6C show the potency of ADGN-peptide variants for in vivo delivery of Luciferase expressing plasmid pGL4 via intravenous administration in mice. ADGN-peptide/pGL4 particles containing 5 μg plasmid DNA were formed in sterile water, and then diluted in 5% sucrose. Mice received IV injection of 100 μl ADGN-peptide/plasmid complexes. pGL4 Luciferase expression was monitored by bioluminescence imaging after 12 h, 24h, 48h and 72h. […] Results were then expressed as values relative to day 0.
Stable ADGN-peptides/pGL4.11 DNA were evaluated for in vivo delivery of Luciferase mRNA via intravenous and intramuscular administrations. Animals were treated with single dose of pGL4.11 plasmid DNA of 5 μg. via IV and 2.5 μg via intramuscular administration.
pGL4.11 DNA plasmid (5 μg) in sterile water (GIBCO) were mixed with ADGN peptide (sterile water), volume for each sample was adjusted to 100 μl, with sterile water containing 5% Sucrose. Samples were mixed gently with vortex for 1 minute at low speed and incubated for 30 min at room temperature. Samples were filtered on 0.45 μm PES filters prior administration. For IV administration Mice received 100 μl IV injection of either ADGN-106/pGL4, ADGN-100/pGL4, ADGN-100RI/pGL4, ADGN-100-stearyl/PGL4, ADGN-100Hydro1/PGL4, ADGN-100Hydro2/PGL4, ADGN100 Hydro6/PGL4 or ADGN/PGL4 complexes containing 10% or 20% of ADGN-100PEG (3 animals per group). As control, mice from group 3 (2 animals per group) received IV injection of 100 μl of naked pGL4 plasmids (5 μg).
Luciferase expression was monitored by bioluminescence. Bioluminescence imaging was performed after 12, 24, 48 and 72 hrs. Mice received an i.p. injection of 150 μg/g luciferin for noninvasive bioluminescence imaging (IVIS Kinetic; PerkinElmer, Waltham, MA, USA).

A375/Luc cells = test: Cellular delivery of siRNA targeting Luciferase, luciferase silencing at 48 hrs; format: cell-based; details: for reduction of ADGN-100 or ADGN-106 efficiency by modification / reduction of level of luciferase (siRNA mediated silencing): absence of serum treatment; for reduction of efficiency / siRNA mediated luciferase silencing in the presence of serum: complexes incubated 3 hrs in 25% serum; for reduction of luciferase expression level: presence of serum
Protocol: FIGS. 3A-3C show luciferase expression in A375/Luc cells treated with ADGN-peptide/siRNA complexes. A375/Luc cells cultured in 48 well plates were transfected with ADGN-peptide nanoparticles. ADGN-100, ADGN-106, ADGN-100RI, ADGN-106RI, ADGN-100 Stearyl, ADGN-Hydro1, ADGN-Hydro2, ADGN-Hydro3, ADGN-Hydro4, ADGN-Hydro5, ADGN-Hydro6 and ADGN-peptide/ADGN-100PEG 10% nanoparticles containing 10 nM or 25 nM siRNA were formed in sterile water, diluted in sterile water containing 5% Sucrose and filtered with 0.45 μm PES filters. FIG. 3C impact of peGylated ADGN-100 on the transfection efficiency. siRNA Luc (10 nM and 25 nM) were associated to ADGN-100 solution containing 5 to 50% of ADGN-100-PEG or to ADGN-100PEG. ADGN/siRNA complexes were incubated for 3 hrs in the presence of 25% serum prior transfection. Luciferase expression was monitored 48 hours post transfection and results were reported as RLU (luminescence):mg of protein.
Complex formation with siRNA. The following protocols were used for the transfection of 2-5 106 Cells or Cells at confluency of about 70-80% cultured in 24 well plates. ADGN peptide/siRNA Luc particles were prepared at a 20:1 molar ratio of ADGN-Peptide/pGL4. using 20 nM siRNA. The siRNA duplex (10 and 25 nM) was diluted in 20 μl of sterile water (GIBCO) at room temperature. 1.5 or 3 μl of a Final Peptide Solution (55 μM) was added to obtain a total volume of 20 μl. The volume was adjusted to 50 μl with sterile water and was mixed gently with vortex 1 min low speed and incubated 30 min at room temperature. Then the volume was made up to 100 μl by adding sterile water containing 5% sucrose, and the solution was mixed gently with vortex 1 min low speed and incubate 5 min at 37° C. and then was proceeded to cell transfection.
Transfection protocol. Protocol is reported for 24 well plate format. Cells were cultured in Dulbecco's Modified Eagle's Medium (DMEM), supplemented with 2 mM glutamine, 1% antibiotics (streptomycin 10,000 μg/mL, penicillin, 10,000 IU/mL) and 10% (w/v) foetal calf serum (FCS), at 37° C. in a humidified atmosphere containing 5% CO2. 24 well plates seeded with 150,000 cells the day prior to transfection were grown to 50-60% confluence and set up to be at about 70% confluences at the time of transfection. Before transfection, cells were washed twice with DMEM. Cells were then overlaid with 0.1 ml of ADGN-peptide/cargo complex solution containing 0.25 μg mRNA, 0.15 μg plasmid DNA or 10-25 nM siRNA, mixed gently, and incubated for 10 min at 37° C. 0.2 mL of fresh DMEM, were added and cells were incubated for 20 min at 37° C. 1 mL of complete DMEM containing 15% FCS were then added in order to reach a final FCS concentration of 10%, without removing the overlay of ADGN-peptide/cargo complexes. Cells were returned to the incubator (37° C., 5% CO2) and 72 hrs post transfection.
ADGN-peptides were evaluated for cellular delivery of siRNA duplex targeting Luciferase in A375/Luc cells. siRNA targeting luciferase (10 and 25 nM) in sterile water (GIBCO) were mixed with ADGN-100, ADGN-100RI, ADGN-106, ADGN-106RI, ADGN-100 Stearyl, ADGN-100Hydro1, ADGN-100Hydro2, ADGN-100Hydro4, ADGN-100Hydro3, ADGN-100Hydro5 and ADGN-100Hydro6. ADGN-peptide/siRNA complexes were filtered with 0.45 μm PES filter. In order to evaluate the stability of the ADGN/siRNA complexes in high serum conditions, the complexes were incubated for 3 hrs in the presence of 25% serum, then A375/Luc cells were transfected and Luciferase expression was monitored at 48 hrs.

Substance	luciferase expression and tissues (mice)	increase of luciferase expression / efficiency relative to ADGN-100 (mice)	reduction of ADGN-100 or ADGN-106 efficiency by modification (A375/Luc cells)	reduction of efficiency / siRNA mediated luciferase silencing in the presence of serum (A375/Luc cells)	reduction of luciferase expression level (A375/Luc cells; 10 nM siRNA)	reduction of luciferase expression level (A375/Luc cells; 25 nM siRNA)	reduction of level of luciferase (siRNA mediated silencing) (A375/Luc cells; 10 nM siRNA)	reduction of level of luciferase (siRNA mediated silencing) (A375/Luc cells; 25 nM siRNA)
Ac-GYVS-(G)4-KWRSALWRWRLWRVRSWSR-NH2 (Ac-GYVSGGGGKWRSALWRWRLWRVRSWSR-NH2) [ADGN-100 hydro-2]	negligible luciferase expression							
Ac-GYVS-Aun-KWRSALWRWRLWRVRSWSR-NH2 (Ac-GYVS[Aun]KWRSALWRWRLWRVRSWSR-NH2; SMILES CC(=O)NCC(=O)N[C@@H](Cc1ccc(O)cc1)C(=O)N[C@H](C(=O)N[C@@H](CO)C(=O)NCCCCCCCCCCC(=O)N[C@@H](CCCCN)C(=O)N[C@@H](Cc1c[nH]c2ccccc12)C(=O)N[C@@H](CCCNC(=N)N)C(=O)N[C@@H](CO)C(=O)N[C@@H](C)C(=O)N[C@@H](CC(C)C)C(=O)N[C@@H](Cc1c[nH]c2ccccc12)C(=O)N[C@@H](CCCNC(=N)N)C(=O)N[C@@H](Cc1c[nH]c2ccccc12)C(=O)N[C@@H](CCCNC(=N)N)C(=O)N[C@@H](CC(C)C)C(=O)N[C@@H](Cc1c[nH]c2ccccc12)C(=O)N[C@@H](CCCNC(=N)N)C(=O)N[C@H](C(=O)N[C@@H](CCCNC(=N)N)C(=O)N[C@@H](CO)C(=O)N[C@@H](Cc1c[nH]c2ccccc12)C(=O)N[C@@H](CO)C(=O)N[C@@H](CCCNC(=N)N)C(N)=O)C(C)C)C(C)C) [ADGN-100 hydro-6]	mainly observed in the liver and at lower level in the lung and the kidney	3.4 fold	do not affected	20%				
Stearyl-βA-KWRSALWRWRLWRVRSWSR-NH2 (Stearyl-[βAla]KWRSALWRWRLWRVRSWSR-NH2; not fully specified; printed as Stearyl-βA-KWRSALWRWRLWRVRSWSR-NH2) [ADGN-100 Stearyl]	mainly observed in the liver and at lower level in the lung and the kidney	2.7 fold	do not affected	20%				
akwllrwlsrwlrwlarwlr ([dA][dK][dW][dL][dL][dR][dW][dL][dS][dR][dW][dL][dR][dW][dL][dA][dR][dW][dL][dR]; also: retro-inverso) [ADGN-106-RI]			do not affected	not affected by the presence of serum	77%	95%		
rswsrvrwlrwrwgasrwk ([dR][dS][dW][dS][dR][dV][dR][dW][dL][dR][dW][dR][dW]G[dA][dS][dR][dW][dK]; also: retro-inverso) [ADGN-100-RI]	mainly observed in the liver and at lower level in the lung and the kidney	4 fold	do not affected	not affected by the presence of serum	77%	95%		
βAKWRSAGWRWRLW RVRSWSR (AKWRSAGWRWRLWRVRSWSR; N-terminal beta-alanine; VARIANT 1 beta-A) [ADGN-100]	mainly observed in the liver and at lower level in the lung and the kidney			90%			78%	93%
βALWRALWRLWRSLWRLLWKA ([βAla]LWRALWRLWRSLWRLLWKA) [ADGN-106]	no or minimal expression			90%			78%	93%
